{"source": "patent US8738114B2", "about": "“Systems and methods for measuring and modeling in vivo manganese ion transport in a subject” (Celtrast LLC, priority 2009, dated 2014)", "target": "NCX (Mus musculus, UniProt P70414)", "assay": "In vivo MEMRI Mn^2+ efflux study with NCX inhibition by SEA0400 (dose dependent groups), pharmacokinetic Models 1-3", "settings": "for Mn^2+ efflux rate following inhibition of the NCX, % of the initial, pre-SEA0400 administration, rate: Model 2 prediction, maximum inhibition", "key": {"[1]": {"settings": "Model 1, 10 mg/kg SEA0400 i.p. 1 h post-190 nmoles/g BW MnCl2"}, "[2]": {"settings": "Model 1, 20 mg/kg SEA0400 i.p. 1 h post-190 nmoles/g BW MnCl2"}, "[3]": {"settings": "Model 1, 34 mg/kg SEA0400 i.p. 1 h post-190 nmoles/g BW MnCl2"}, "[4]": {"settings": "Model 1, 50 mg/kg SEA0400 i.p. 1 h post-190 nmoles/g BW MnCl2"}, "[5]": {"settings": "Model 2, 10 mg/kg SEA0400 i.p. 1 h post-190 nmoles/g BW MnCl2"}, "[6]": {"settings": "Model 2, 20 mg/kg SEA0400 i.p. 1 h post-190 nmoles/g BW MnCl2"}, "[7]": {"settings": "Model 2, 34 mg/kg SEA0400 i.p. 1 h post-190 nmoles/g BW MnCl2"}, "[8]": {"settings": "Model 2, 50 mg/kg SEA0400 i.p. 1 h post-190 nmoles/g BW MnCl2"}, "[9]": {"settings": "Model 3, 10 mg/kg SEA0400 i.p. 1 h post-190 nmoles/g BW MnCl2"}, "[10]": {"settings": "Model 3, 20 mg/kg SEA0400 i.p. 1 h post-190 nmoles/g BW MnCl2"}, "[11]": {"settings": "Model 3, 34 mg/kg SEA0400 i.p. 1 h post-190 nmoles/g BW MnCl2"}, "[12]": {"settings": "Model 3, 50 mg/kg SEA0400 i.p. 1 h post-190 nmoles/g BW MnCl2"}}, "method": "The mice were randomized into three groups for efflux studies: 1) MnCl2 dose dependent (65±0.2, 119±2, 190±3 (Control) and 283±6 nmoles/g body weight MnCl2, n=40 mice) 2) SEA0400 dose dependent (190±1 nmoles/g BW MnCl2 infusion, followed 1 hour later with an i.p. injection of 10±0.2, 20±0.2, 34±0.8 and 50±0.2 mg/kg SEA0400, n=30) 3) Myocardial infarction (MI, 190±0.1 nmoles/g BW MnCl2, n=9)\nIn order to model the drug pharmacokinetics of SEA0400, and therefore the Mn^2+ transport mechanisms, an equation for the drug plasma concentration (Cp) was used (Eq. [2]), commonly applied to pharmaceutical modeling:\nIn Eq. [2] F is the fraction of drug absorbed, Vp is the apparent volume of distribution of the drug and D is the drug dose administered. The rate parameters, kel and kabs represent the drug elimination and absorption rates respectively.\nThe form for the Mn^2+ transfer rate parameter k21 was given by Eq. [3], under the assumption that k21 decreases linearly with increasing SEA0400 plasma concentration, Cp, as in Eq. [2]:\nParameter k21,initial is defined as the pre-pharmaceutical administration transfer parameter, k21(t<1 h). […] All the transfer rate and pharmaceutical parameters were therefore time-independent with the exception of k0 and k21 following SEA0400 administration.\nThe pharmaceutical absorption and elimination half-live (t1/2abs and t1/2el respectively) are given in Eq. [4] and Eq. [5].\nSolutions to the ODEs were acquired using simultaneous 4th Order Runge-Kutta numerical methods in Matlab (Nantick, Mass.). Temporal in vivo cardiac Mn^2+ content data and ex vivo blood Mn^2+ content data were fit simultaneously to acquire least square fits for the first order rate parameters, kab. Least square fits of the pharmaceutical parameters, kabs and kel were also obtained using the SEA0400 groups, assuming that kab was unchanged from the control 190 nmoles/g group. […] The only constraint made by the least square fitting technique was that the transfer rate parameters and pharmaceutical parameters were ≧0.\nLeast square curve fitting techniques are inherently sensitive to the initial estimates of kab. For a given initial estimate of kab the fit may converge on solutions at local minima, which may not be the global minimum. In order to minimize potential errors caused by this effect, all the models employed a global search over a wide range in parameter space to find the initial estimates of kab corresponding to lowest fit residuals. To use the most realistic initial estimates for the fitting function, simultaneous solutions were obtained for the control 190 nmoles/g heart and 50 mg/kg SEA0400 heart efflux data, as well as the corresponding blood efflux data.\nFor the SEA0400 groups, a similar set of simultaneous ODEs was used, with k21 modeled as a function of time (Eq. [3]).\nk21total and k2comp are the total transfer rates from compartment 2 to the blood, and from compartment 2 to compartments 3 and 4, respectively. These two parameters were estimated via the modeling technique.", "data": [{"compound": "CCOc1ccc(Oc2ccc(OCc3cc(F)ccc3F)cc2)c(N)c1", "note": "[SEA0400]", "values": [{"measurement": "kabs drug absorption rate", "setting": "[1]", "value": 671, "unit": "h⁻¹"}, {"measurement": "kel drug elimination rate", "setting": "[1]", "value": 1.7, "unit": "h⁻¹"}, {"measurement": "kabs drug absorption rate", "setting": "[2]", "value": 672, "unit": "h⁻¹"}, {"measurement": "kel drug elimination rate", "setting": "[2]", "value": 0.51, "unit": "h⁻¹"}, {"measurement": "kabs drug absorption rate", "setting": "[3]", "value": 680, "unit": "h⁻¹"}, {"measurement": "kel drug elimination rate", "setting": "[3]", "value": 0.49, "unit": "h⁻¹"}, {"measurement": "kabs drug absorption rate", "setting": "[4]", "value": 66, "unit": "h⁻¹"}, {"measurement": "kel drug elimination rate", "setting": "[4]", "value": 0.14, "unit": "h⁻¹"}, {"measurement": "kabs drug absorption rate", "setting": "[5]", "value": 68, "unit": "h⁻¹"}, {"measurement": "kel drug elimination rate", "setting": "[5]", "value": 1.6, "unit": "h⁻¹"}, {"measurement": "kabs drug absorption rate", "setting": "[6]", "value": 149, "unit": "h⁻¹"}, {"measurement": "kel drug elimination rate", "setting": "[6]", "value": 0.47, "unit": "h⁻¹"}, {"measurement": "kabs drug absorption rate", "setting": "[7]", "value": 115, "unit": "h⁻¹"}, {"measurement": "kel drug elimination rate", "setting": "[7]", "value": 0.41, "unit": "h⁻¹"}, {"measurement": "kabs drug absorption rate", "setting": "[8]", "value": 118, "unit": "h⁻¹"}, {"measurement": "kel drug elimination rate", "setting": "[8]", "value": 0.17, "unit": "h⁻¹"}, {"measurement": "Mn^2+ efflux rate following inhibition of the NCX, % of the initial, pre-SEA0400 administration, rate", "setting": "10 mg/kg SEA0400", "value": 8.2, "unit": "%"}, {"measurement": "Mn^2+ efflux rate following inhibition of the NCX, % of the initial, pre-SEA0400 administration, rate", "setting": "20 mg/kg SEA0400", "value": 1.8, "unit": "%"}, {"measurement": "Mn^2+ efflux rate following inhibition of the NCX, % of the initial, pre-SEA0400 administration, rate", "setting": "35 mg/kg SEA0400", "value": 1.6, "unit": "%"}, {"measurement": "Mn^2+ efflux rate following inhibition of the NCX, % of the initial, pre-SEA0400 administration, rate", "setting": "50 mg/kg SEA0400", "value": 1.0, "unit": "%"}, {"measurement": "kabs drug absorption rate", "setting": "[9]", "value": 85, "unit": "h⁻¹"}, {"measurement": "kel drug elimination rate", "setting": "[9]", "value": 1.1, "unit": "h⁻¹"}, {"measurement": "kabs drug absorption rate", "setting": "[10]", "value": 118, "unit": "h⁻¹"}, {"measurement": "kel drug elimination rate", "setting": "[10]", "value": 0.44, "unit": "h⁻¹"}, {"measurement": "kabs drug absorption rate", "setting": "[11]", "value": 9.4, "unit": "h⁻¹"}, {"measurement": "kel drug elimination rate", "setting": "[11]", "value": 0.33, "unit": "h⁻¹"}, {"measurement": "kabs drug absorption rate", "setting": "[12]", "value": 149, "unit": "h⁻¹"}, {"measurement": "kel drug elimination rate", "setting": "[12]", "value": 0.06, "unit": "h⁻¹"}, {"measurement": "share of Mn^2+ efflux that occurs via the NCX", "setting": "model prediction, highest dose of SEA0400", "value": "approximately 99%"}]}]}
